Source: patent US20150283120A1, “ANTIBIOTIC METHODS AND COMPOSITIONS FOR BACTERIA INFECTIONS” (THE UNIVERSITY OF CHICAGO, priority 2012, published 2015)
Structures can show the parent of a compound that is named as a salt.

Key:
[1] = tested on: vraSR transcription (Pvra::lux); assay type: cell-based, Staphylococcus aureus; details: compound 10 μM + oxacillin 2 μg/mL; for RL avg (relative luminescence): ratio of LU to oxacillin alone, four runs
Experimental: (§1) In the secondary screen each microtiter plate contained either cells in TSB alone (16 replicates), cells with oxacillin (2 μg/mL, 31 replicates), or cells with test compound and oxacillin (2 μg/mL, 49 wells). Each compound was assayed in four separate biological replicates.
(§2) All compounds classified in the primary screen as synergists that were vraSR-stimulating or -repressing (as shown in Table 8) were screened in a secondary assay for their effects on both growth and Pvra::lux induction by oxacillin. […] Each compound was tested four separate times at 10 μM in the presence of oxacillin (2 μg/mL) and luminescence was measured every 15 minutes. Relative growth (RG) and relative luminescence (RL) was calculated as the ratio between the OD600 or max LU value in the presence of compound and oxacillin over the average from pooled control values obtained from the same plate. […] Compounds that produced an average RG (ratio of the OD600 of the culture grown with test compound combined with oxacillin to that of oxacillin alone) of <0.8 were classified as oxacillin synergists or potentiators. The relative luminescence (RL) was the ratio of the LU produced in the presence of the test compound combined with oxacillin to that produced by oxacillin alone. Compounds were classified as “vraSR repressors” (mean RL of <0.8), “vraSR stimulators”, (mean RL>1.2), and “vraSR neutral” (mean RL between 0.80-1.2). […] In contrast, 34 compounds had no effect on growth in the presence of oxacillin (“un” in the OD600 category). Among the oxacillin potentiators, there were 2 vraSR stimulators, 3 vraSR neutral compounds and 10 vraSR repressors.

[2] = tested on: MRSA strain USA300 Pvra-lux; assay type: cell-based, Staphylococcus aureus; details: compound 10 μM + oxacillin 2 μg/mL; for RG avg (relative growth): ratio of OD600 to oxacillin alone, four runs
Experimental: as §1, §2

Structure (SMILES) | Effect on vraSR transcription [1] | RL avg (relative luminescence) [1] | OD600 category [2] | RG avg (relative growth) [2]
CCN(CC)CCOc1ccc(C(=C(Cl)c2ccccc2)c2ccccc2)cc1 (racemic) [Clomiphene citrate (Z,E), 2-(4-(2-chloro-1,2-diphenylethenyl)phenoxy)-N,N-diethyl-ethanamine] | repress (“vraSR repressors” (mean RL of <0.8)) | 0.39 | inhibited (of <0.8 were classified as oxacillin synergists or potentiators) | 0.68
COc1ccc(-c2cc(=O)c3c(O)cc(O)cc3o2)cc1 [Acacetin] | neutral (“vraSR neutral” (mean RL between 0.80-1.2)) | 0.88 | un (no effect on growth in the presence of oxacillin (“un” in the OD600 category)) | 0.91
CC1(C)S[C@@H]2[C@H](NC(=O)[C@H](NC(=O)N3CCNC3=O)c3ccccc3)C(=O)N2[C@H]1C(=O)O [Azlocillin sodium salt] | neutral (“vraSR neutral” (mean RL between 0.80-1.2)) | 0.78 | un (no effect on growth in the presence of oxacillin (“un” in the OD600 category)) | 0.91
CCC(=O)OCC(=O)[C@@]1(OC(=O)CC)[C@@H](C)C[C@H]2[C@@H]3CCC4=CC(=O)C=C[C@]4(C)[C@@]3(Cl)[C@@H](O)C[C@@]21C [Beclomethasone dipropionate] | neutral (“vraSR neutral” (mean RL between 0.80-1.2)) | 0.96 | un (no effect on growth in the presence of oxacillin (“un” in the OD600 category)) | 0.96
NS(=O)(=O)c1cc2c(cc1Cl)N=C(CSCc1ccccc1)NS2(=O)=O [Benzthiazide] | neutral (“vraSR neutral” (mean RL between 0.80-1.2)) | 0.95 | un (no effect on growth in the presence of oxacillin (“un” in the OD600 category)) | 1.01
C=C(C)[C@@H]1CC[C@]2(C(=O)O)CC[C@]3(C)[C@H](CC[C@@H]4[C@@]5(C)CC[C@H](O)C(C)(C)[C@@H]5CC[C@]43C)[C@@H]12 [Betulinic acid] | neutral (“vraSR neutral” (mean RL between 0.80-1.2)) | 0.83 | un (no effect on growth in the presence of oxacillin (“un” in the OD600 category)) | 0.87
CCCC(=O)Nc1ncnc2c1ncn2[C@@H]1O[C@@H]2COP(=O)(O)O[C@H]2[C@H]1OC(=O)CCC [Bucladesine sodium salt] | neutral (“vraSR neutral” (mean RL between 0.80-1.2)) | 0.94 | un (no effect on growth in the presence of oxacillin (“un” in the OD600 category)) | 1.02
CCCCN(CCCC)CCCOC(=O)c1ccc(N)cc1 [Butacaine] | neutral (“vraSR neutral” (mean RL between 0.80-1.2)) | 0.98 | un (no effect on growth in the presence of oxacillin (“un” in the OD600 category)) | 1.03
C=C1CC[C@H](O)C/C1=C/C=C1\CCC[C@]2(C)[C@@H]([C@H](C)/C=C/[C@H](C)C(C)C)CC[C@@H]12 [Calciferol] | neutral (“vraSR neutral” (mean RL between 0.80-1.2)) | 0.88 | un (no effect on growth in the presence of oxacillin (“un” in the OD600 category)) | 0.96
C(=C\c1ccccc1)/CN1CCN(C(c2ccccc2)c2ccccc2)CC1 [Cinnarizine] | neutral (“vraSR neutral” (mean RL between 0.80-1.2)) | 0.94 | un (no effect on growth in the presence of oxacillin (“un” in the OD600 category)) | 0.97
CCn1nc(C(=O)O)c(=O)c2cc3c(cc21)OCO3 [Cinoxacin] | neutral (“vraSR neutral” (mean RL between 0.80-1.2)) | 1.03 | un (no effect on growth in the presence of oxacillin (“un” in the OD600 category)) | 1.05
C[N+]12CCC(CC1)C(OC(=O)C(O)(c1ccccc1)c1ccccc1)C2 (stereo not drawn) [Clidinium bromide] | neutral (“vraSR neutral” (mean RL between 0.80-1.2)) | 0.95 | un (no effect on growth in the presence of oxacillin (“un” in the OD600 category)) | 0.97
COc1cccc2c1C(=O)c1c(O)c3c(c(O)c1C2=O)C[C@@](O)(C(C)=O)C[C@@H]3O[C@H]1C[C@H](N)[C@H](O)[C@H](C)O1 [Daunorubicin hydrochloride] | repress (“vraSR repressors” (mean RL of <0.8)) | 1.00 | un (no effect on growth in the presence of oxacillin (“un” in the OD600 category)) | 0.98
C[C@]12CC[C@H](O)C[C@H]1CC[C@@H]1[C@@H]2CC[C@]2(C)[C@@H](C3=CC(=O)OC3)CC[C@]12O [Digitoxigenin] | neutral (“vraSR neutral” (mean RL between 0.80-1.2)) | 0.97 | un (no effect on growth in the presence of oxacillin (“un” in the OD600 category)) | 1.01
O=c1[nH]c2ccccc2n1CCCN1CCC(n2c(=O)[nH]c3cc(Cl)ccc32)CC1 [Domperidone] | neutral (“vraSR neutral” (mean RL between 0.80-1.2)) | 0.85 | un (no effect on growth in the presence of oxacillin (“un” in the OD600 category)) | 0.91
COc1cccc2c1C(=O)c1c(O)c3c(c(O)c1C2=O)C[C@@](O)(C(=O)CO)C[C@@H]3O[C@H]1C[C@H](N)[C@H](O)[C@H](C)O1 [Doxorubicin hydrochloride] | repress (“vraSR repressors” (mean RL of <0.8)) | 0.83 | un (no effect on growth in the presence of oxacillin (“un” in the OD600 category)) | 0.88
O=C(CCCN1CC=C(n2c(=O)[nH]c3ccccc32)CC1)c1ccc(F)cc1 [Droperidol] | neutral (“vraSR neutral” (mean RL between 0.80-1.2)) | 0.91 | un (no effect on growth in the presence of oxacillin (“un” in the OD600 category)) | 1.02
C#C[C@]1(O)CC[C@H]2[C@@H]3CCc4cc(OC)ccc4[C@H]3CC[C@@]21C [Ethynylestradiol 3-methyl ether] | repress (“vraSR repressors” (mean RL of <0.8)) | 0.97 | un (no effect on growth in the presence of oxacillin (“un” in the OD600 category)) | 0.95
O=C1OC(CN2CCOCC2)CN1/N=C/c1ccc([N+](=O)[O-])o1 (stereo not drawn) [Furaltadone hydrochloride] | repress (“vraSR repressors” (mean RL of <0.8)) | 1.01 | un (no effect on growth in the presence of oxacillin (“un” in the OD600 category)) | 1.00
N=C(N)NC(=O)Cc1c(Cl)cccc1Cl [Guanfacine hydrochloride] | neutral (“vraSR neutral” (mean RL between 0.80-1.2)) | 0.79 | un (no effect on growth in the presence of oxacillin (“un” in the OD600 category)) | 0.88
CC(C(=O)O)c1ccc(N2Cc3ccccc3C2=O)cc1 (stereo not drawn) [Indoprofen] | neutral (“vraSR neutral” (mean RL between 0.80-1.2)) | 0.87 | un (no effect on growth in the presence of oxacillin (“un” in the OD600 category)) | 0.98
N[C@@H](Cc1cc(I)c(Oc2ccc(O)c(I)c2)c(I)c1)C(=O)O [Liothyronine] | neutral (“vraSR neutral” (mean RL between 0.80-1.2)) | 0.87 | un (no effect on growth in the presence of oxacillin (“un” in the OD600 category)) | 0.88
CN(C)CCOC(=O)COc1ccc(Cl)cc1 [Meclofenoxate hydrochloride] | neutral (“vraSR neutral” (mean RL between 0.80-1.2)) | 1.08 | un (no effect on growth in the presence of oxacillin (“un” in the OD600 category)) | 1.08
O=C1c2c(O)ccc(O)c2C(=O)c2c(NCCNCCO)ccc(NCCNCCO)c21 [Mitoxantrone dihydrochloride] | neutral (“vraSR neutral” (mean RL between 0.80-1.2)) | 0.83 | un (no effect on growth in the presence of oxacillin (“un” in the OD600 category)) | 0.94
